Key:
[1] = target: T1, Type-2 angiotensin II receptor (Homo sapiens, UniProt P50052); format: cell-based; conditions: cho-k1
T1 sequence (P50052 whole entry): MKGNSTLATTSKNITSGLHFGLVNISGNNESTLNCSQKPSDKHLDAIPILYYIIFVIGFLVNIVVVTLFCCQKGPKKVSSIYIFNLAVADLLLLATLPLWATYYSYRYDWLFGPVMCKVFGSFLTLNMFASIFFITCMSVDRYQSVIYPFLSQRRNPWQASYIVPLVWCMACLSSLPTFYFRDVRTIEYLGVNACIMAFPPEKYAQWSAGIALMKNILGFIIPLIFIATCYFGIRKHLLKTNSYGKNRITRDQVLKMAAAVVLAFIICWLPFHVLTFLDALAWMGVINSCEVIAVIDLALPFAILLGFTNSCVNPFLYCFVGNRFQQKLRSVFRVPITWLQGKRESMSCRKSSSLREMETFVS

[2] = target: 5-hydroxytryptamine receptor 2B (Homo sapiens, UniProt P41595); format: cell membranes, CHO-K1, Membrane
5-hydroxytryptamine receptor 2B, sequence (P41595 whole entry): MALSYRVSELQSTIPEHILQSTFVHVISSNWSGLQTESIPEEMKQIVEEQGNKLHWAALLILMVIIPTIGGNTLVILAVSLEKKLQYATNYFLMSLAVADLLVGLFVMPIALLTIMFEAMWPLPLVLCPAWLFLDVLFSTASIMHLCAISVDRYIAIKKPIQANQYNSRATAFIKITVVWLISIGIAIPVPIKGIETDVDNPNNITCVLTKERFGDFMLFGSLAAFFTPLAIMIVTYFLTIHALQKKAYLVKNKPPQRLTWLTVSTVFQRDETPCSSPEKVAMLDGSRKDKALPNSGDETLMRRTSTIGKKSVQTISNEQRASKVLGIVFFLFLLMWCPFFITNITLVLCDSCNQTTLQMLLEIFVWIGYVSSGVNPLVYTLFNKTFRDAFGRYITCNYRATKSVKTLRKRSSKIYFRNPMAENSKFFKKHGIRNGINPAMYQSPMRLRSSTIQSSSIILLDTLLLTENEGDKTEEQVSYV

[3] = target: T2, Nitric oxide synthase, inducible (Mus musculus, UniProt P29477); design: species or system Escherichia coli;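 note: inhibition of iNOS enzyme activity measured with L-arginine as substrate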
T2 sequence (P29477 whole entry): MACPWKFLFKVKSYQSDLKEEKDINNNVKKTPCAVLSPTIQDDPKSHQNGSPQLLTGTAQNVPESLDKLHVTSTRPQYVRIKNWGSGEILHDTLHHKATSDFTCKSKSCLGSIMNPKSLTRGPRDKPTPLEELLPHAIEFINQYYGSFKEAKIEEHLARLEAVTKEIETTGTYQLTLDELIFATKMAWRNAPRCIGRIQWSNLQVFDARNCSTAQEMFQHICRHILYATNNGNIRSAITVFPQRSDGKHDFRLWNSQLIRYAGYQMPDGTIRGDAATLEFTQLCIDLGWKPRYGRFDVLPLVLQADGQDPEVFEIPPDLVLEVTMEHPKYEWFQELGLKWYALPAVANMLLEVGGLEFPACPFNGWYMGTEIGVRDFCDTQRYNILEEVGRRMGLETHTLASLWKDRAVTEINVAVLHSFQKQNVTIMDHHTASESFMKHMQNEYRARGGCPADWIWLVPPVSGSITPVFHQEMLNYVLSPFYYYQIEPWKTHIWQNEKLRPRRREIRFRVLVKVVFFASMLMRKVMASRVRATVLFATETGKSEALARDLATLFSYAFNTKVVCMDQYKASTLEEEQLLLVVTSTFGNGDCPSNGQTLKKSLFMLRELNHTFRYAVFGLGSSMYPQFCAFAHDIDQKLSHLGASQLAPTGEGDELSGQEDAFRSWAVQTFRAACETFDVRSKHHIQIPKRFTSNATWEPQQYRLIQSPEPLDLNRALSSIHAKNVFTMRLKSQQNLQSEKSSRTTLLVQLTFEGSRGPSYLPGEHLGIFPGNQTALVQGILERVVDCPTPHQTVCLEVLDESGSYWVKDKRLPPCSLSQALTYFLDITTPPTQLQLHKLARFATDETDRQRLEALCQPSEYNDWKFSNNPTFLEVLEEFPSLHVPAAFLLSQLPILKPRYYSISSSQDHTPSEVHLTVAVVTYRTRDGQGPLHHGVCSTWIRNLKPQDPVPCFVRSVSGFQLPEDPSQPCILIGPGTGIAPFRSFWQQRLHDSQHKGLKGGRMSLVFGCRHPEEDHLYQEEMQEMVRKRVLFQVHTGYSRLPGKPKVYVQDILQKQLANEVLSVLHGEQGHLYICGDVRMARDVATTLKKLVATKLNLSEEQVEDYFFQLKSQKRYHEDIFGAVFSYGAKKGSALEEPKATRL

[4] = target: Matrix metalloproteinase-9 (Homo sapiens, UniProt P14780); assay: biochemical; format: cell-based;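 note: inhibition of isolated MMP-9 enzyme activity toward a synthetic peptide substrate, from the DrugMatrix protease screening panel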
Matrix metalloproteinase-9, sequence (P14780 whole entry): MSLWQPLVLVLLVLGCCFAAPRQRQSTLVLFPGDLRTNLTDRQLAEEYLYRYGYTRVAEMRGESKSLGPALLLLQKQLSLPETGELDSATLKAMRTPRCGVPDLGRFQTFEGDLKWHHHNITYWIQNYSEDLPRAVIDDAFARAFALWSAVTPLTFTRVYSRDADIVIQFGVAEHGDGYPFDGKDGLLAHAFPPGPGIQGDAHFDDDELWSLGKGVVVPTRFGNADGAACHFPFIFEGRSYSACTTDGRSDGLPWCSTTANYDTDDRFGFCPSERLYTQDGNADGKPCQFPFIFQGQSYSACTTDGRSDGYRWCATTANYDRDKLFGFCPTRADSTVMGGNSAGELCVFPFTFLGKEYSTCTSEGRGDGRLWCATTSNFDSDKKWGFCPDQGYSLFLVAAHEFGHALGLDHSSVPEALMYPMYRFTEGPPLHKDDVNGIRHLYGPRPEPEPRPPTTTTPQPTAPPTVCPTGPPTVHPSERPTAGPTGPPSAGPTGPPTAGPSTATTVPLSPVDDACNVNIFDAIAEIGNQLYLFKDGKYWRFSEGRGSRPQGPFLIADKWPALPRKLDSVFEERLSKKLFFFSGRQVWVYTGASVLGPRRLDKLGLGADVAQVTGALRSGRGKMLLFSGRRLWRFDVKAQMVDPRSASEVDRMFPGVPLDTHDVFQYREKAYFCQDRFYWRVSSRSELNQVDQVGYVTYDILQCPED

[5] = target: T3, 5-hydroxytryptamine receptor 1A (Rattus norvegicus, UniProt P19327); format: cell membranes, CHO-K1, Membrane; conditions: for Ki: read-out: Ki
T3 sequence (P19327 whole entry): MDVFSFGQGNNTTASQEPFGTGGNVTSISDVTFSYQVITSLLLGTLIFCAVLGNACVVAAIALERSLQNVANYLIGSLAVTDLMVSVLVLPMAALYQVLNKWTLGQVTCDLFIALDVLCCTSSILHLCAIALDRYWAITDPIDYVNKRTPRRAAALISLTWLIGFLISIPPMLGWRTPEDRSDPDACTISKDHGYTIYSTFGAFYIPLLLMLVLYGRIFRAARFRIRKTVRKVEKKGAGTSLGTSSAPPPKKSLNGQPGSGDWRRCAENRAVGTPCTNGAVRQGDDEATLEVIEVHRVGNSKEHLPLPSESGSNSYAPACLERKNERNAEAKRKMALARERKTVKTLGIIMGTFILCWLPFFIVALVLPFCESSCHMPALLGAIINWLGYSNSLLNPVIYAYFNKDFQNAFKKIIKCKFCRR

[6] = target: T4, Cytochrome P450 1A2 (Homo sapiens, UniProt P05177); conditions: bti-tn-5b1-4
T4 sequence (P05177 whole entry): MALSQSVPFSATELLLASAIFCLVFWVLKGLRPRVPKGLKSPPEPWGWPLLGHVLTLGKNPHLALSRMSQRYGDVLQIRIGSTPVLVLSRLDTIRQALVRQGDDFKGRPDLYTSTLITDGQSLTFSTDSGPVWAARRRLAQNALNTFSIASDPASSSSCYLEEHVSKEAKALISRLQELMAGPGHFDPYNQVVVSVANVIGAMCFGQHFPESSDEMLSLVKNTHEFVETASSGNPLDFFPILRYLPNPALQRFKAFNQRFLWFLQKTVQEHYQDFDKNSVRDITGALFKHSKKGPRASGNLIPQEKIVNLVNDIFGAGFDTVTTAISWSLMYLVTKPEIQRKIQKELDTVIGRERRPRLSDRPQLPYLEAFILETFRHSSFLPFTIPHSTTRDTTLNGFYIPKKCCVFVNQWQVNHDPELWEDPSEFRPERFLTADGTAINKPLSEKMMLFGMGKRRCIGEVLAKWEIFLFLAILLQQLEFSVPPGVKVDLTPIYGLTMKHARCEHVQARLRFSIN

[7] = target: Voltage-gated inwardly rectifying potassium channel KCNH2 (Homo sapiens, UniProt Q12809); conditions: hek293
Voltage-gated inwardly rectifying potassium channel KCNH2, sequence (Q12809 whole entry): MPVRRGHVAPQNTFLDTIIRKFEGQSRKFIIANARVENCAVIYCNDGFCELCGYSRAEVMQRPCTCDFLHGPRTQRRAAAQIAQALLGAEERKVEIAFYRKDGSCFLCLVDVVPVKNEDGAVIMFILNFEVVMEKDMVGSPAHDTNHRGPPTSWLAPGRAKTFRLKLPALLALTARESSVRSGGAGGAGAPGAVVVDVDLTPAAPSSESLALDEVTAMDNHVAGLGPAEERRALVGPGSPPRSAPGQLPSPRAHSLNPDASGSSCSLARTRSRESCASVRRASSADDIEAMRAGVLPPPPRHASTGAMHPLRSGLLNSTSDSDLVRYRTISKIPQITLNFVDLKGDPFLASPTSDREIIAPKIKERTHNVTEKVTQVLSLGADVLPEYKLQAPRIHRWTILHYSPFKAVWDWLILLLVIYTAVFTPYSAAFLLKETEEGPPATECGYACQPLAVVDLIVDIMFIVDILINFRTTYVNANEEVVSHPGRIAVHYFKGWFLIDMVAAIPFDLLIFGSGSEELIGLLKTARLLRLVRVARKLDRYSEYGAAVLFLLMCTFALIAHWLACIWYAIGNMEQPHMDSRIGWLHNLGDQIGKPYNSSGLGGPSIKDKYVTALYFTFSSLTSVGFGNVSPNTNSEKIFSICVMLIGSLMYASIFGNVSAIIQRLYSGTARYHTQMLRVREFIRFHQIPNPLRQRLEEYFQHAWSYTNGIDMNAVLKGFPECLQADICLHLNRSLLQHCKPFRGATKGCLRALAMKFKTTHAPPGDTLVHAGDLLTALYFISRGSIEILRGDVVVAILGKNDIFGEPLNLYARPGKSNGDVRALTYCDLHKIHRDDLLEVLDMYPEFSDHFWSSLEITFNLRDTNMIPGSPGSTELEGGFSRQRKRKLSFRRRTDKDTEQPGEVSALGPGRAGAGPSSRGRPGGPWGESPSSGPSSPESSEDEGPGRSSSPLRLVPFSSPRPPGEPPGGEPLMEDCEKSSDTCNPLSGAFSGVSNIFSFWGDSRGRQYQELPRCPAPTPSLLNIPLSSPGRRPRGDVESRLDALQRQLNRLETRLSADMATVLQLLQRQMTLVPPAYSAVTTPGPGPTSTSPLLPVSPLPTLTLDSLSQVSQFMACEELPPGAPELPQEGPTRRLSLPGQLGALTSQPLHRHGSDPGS
Note: in other assays of this panel Not Active means under 50% inhibition at 10 µM.

| SMILES | IC50 [1] | IC50 ([2]; cho-k1) | IC50 [3] | IC50 [4] | IC50 ([5]; cho-k1) | IC50 [6] | Ki [6] | IC50 [7] | Ki [7] | IC50 ([5]; read-out: IC50) | Ki [5] | IC50 ([2]; read-out: IC50) | Ki ([2]; read-out: Ki) |
| --- | --- | --- | --- | --- | --- | --- | --- | --- | --- | --- | --- | --- | --- |
| O=P1(N(CCCl)CCCl)NCCCO1 (stereo not given) [CYCLOPHOSPHAMIDE ANHYDROUS] | Not Active | Not Active | Not Active | Not Active | Not Active | Not Active | Not Active | Not Active | Not Active |  |  |  |  |
| CC(=O)O[C@]1(C(C)=O)CC[C@H]2[C@@H]3C=C(Cl)C4=CC(=O)[C@@H]5C[C@@H]5[C@]4(C)[C@H]3CC[C@@]21C [CYPROTERONE ACETATE] | Not Active | Not Active | Not Active | Not Active | Not Active | Not Active | Not Active | Not Active | Not Active |  |  |  |  |
| Nc1nc(N)nc(NC2CC2)n1 [CYROMAZINE] | Not Active | Not Active | Not Active | Not Active | Not Active | Not Active | Not Active | Not Active | Not Active |  |  |  |  |
| C#C[C@]1(O)CC[C@H]2[C@@H]3CCC4=Cc5oncc5C[C@]4(C)[C@H]3CC[C@@]21C [DANAZOL] | Not Active | Not Active | Not Active | Not Active | Not Active | Not Active | Not Active | Not Active | Not Active |  |  |  |  |
| CCN[C@@H](C)Cc1cccc(C(F)(F)F)c1 [DEXFENFLURAMINE] | Not Active | Not Active | Not Active | Not Active |  | Not Active | Not Active | Not Active | Not Active | 3400 nM | 1940 nM |  |  |
| C[C@H](C(=O)O)c1cccc(C(=O)c2ccccc2)c1 [DEXKETOPROFEN] | Not Active | Not Active | Not Active | Not Active | Not Active | Not Active | Not Active | Not Active | Not Active |  |  |  |  |
| CN1C[C@H](C(=O)N[C@]2(C)O[C@@]3(O)[C@@H]4CCCN4C(=O)[C@H](Cc4ccccc4)N3C2=O)C[C@@H]2c3cccc4[nH]cc(c34)C[C@H]21 [DIHYDROERGOTAMINE] | Not Active |  | Not Active | Not Active |  | Not Active | Not Active | Not Active | Not Active | 0.659 nM | 0.377 nM | 6.8 nM | 4.33 nM |
| Cc1c(N(C)CS(=O)(=O)[O-])c(=O)n(-c2ccccc2)n1C.[Na+] [DIPYRONE SODIUM] | Not Active | Not Active | Not Active | Not Active | Not Active | Not Active | Not Active | Not Active | Not Active |  |  |  |  |

From ChEMBL document CHEMBL1909046, “DrugMatrix in vitro pharmacology data”
